Results on four compounds are retold here after patent US12459930B2, “Compounds for the inhibition of unregulated cell growth” (GODAVARI BIOREFINERIES LIMITED, priority 2018, dated 2025).

In experiment [1] the test system is PC3 prostate cancer cell line. Nature of the experiment: Soft agar colony-formation assay, PC3. Type of experiment: cell-based. Particulars: 1 week, Alamar Blue, read-out: IC50 in micromolar, PC3 (Soft Agar Assay). As to the method:
(§1) The Soft Agar Colony-formation Assay is an anchorage-independent growth assay in soft agar, which is one of the most stringent assays for detecting malignant transformation of cells. For this assay, malignant cells are cultured with appropriate controls in soft agar medium for 1-2 weeks. Following this incubation period, formed colonies can either be analyzed morphologically using cell stain and quantifying the number of colonies formed.
(§2) Briefly, for Soft Agar Assay a mixture of 50 ul of 2× medium (taken appropriately as per cell line) and 50 ul of 1.2% Bacto Agar were plated on to each well of 96 well micro titer assay plate. 10 ul of cells (of specific plating efficiency pre standardized for respective cell line) were mixed with 20 ul of 2× medium and 30 ul of 0.8% of Bacto Agar and 1.6 ul of drug (of appropriate concentration) in a vial and transferred to the solidified pre layers of the assay plates. The cells were then allowed to grow and form colonies at 37° C. and 5% C02 for 1 week. An intermittent feeding with 50 ul of appropriate 2× medium was performed after 3 days of experimental set up. 16 ul of Alamar Blue (1.5 mg/ml) was then added to all the wells to quantify the developed colonies. The plates were incubated for 24 hrs at 37° C. Absorbance was then measured at 630 nm. XY graph of log Percent viability was then plotted against log drug concentration.
(§3) Following plating efficiencies were standardized for Soft Agar Assay: […]
Background: The colour change of resazurin is a common sign of viable cells or microbes.

Experiment [2] relates to DU145 prostate cancer cell line. Briefly: In vitro antiproliferative assay (MTT assay), DU145. Type of experiment: cell-based. Particulars: 48 hrs drug incubation, read-out: IC50 in micromolar, DU145 (MTT assay). How it is done: (§4) MTT assay is a simple and sensitive assay where, metabolic reducing activity of the cells is measured. The increase of this activity in time is taken as a parameter of cell growth. If treatment with a drug impairs this increase, the action is a consequence of growth inhibition, cell killing or both. […] All cell lines were cultured in a 37° C. incubator with a 5% CO2 environment. Compounds were dissolved in DMSO with a concentration of 0.1M (stock solution). Cells were seeded into 96-well plates at suitable plating efficiency.
(§5) Following plating efficiencies were standardized for MTT assay:
(§6) In the MTT procedure, the cells were plated in 96 well plates as per predetermined plating efficiency (Table1). The plates were then incubated for 24 hrs in 5% CO2 atmosphere at 37° C. Appropriate concentrations of the drugs were then added to the plate and further incubation was carried out for 48 hrs (in 5% CO2 atmosphere at 37° C.). The assay plate was then centrifuged twice at 3000 rpm for 3 mins and supernatant was then discarded. 100 ul of MTT solution (0.5 mg/ml) was then added to each well of the plate and it was further incubated for 4 hrs (in 5% CO2 atmosphere at 37° C.) Following 4 hr incubation, the plate was then centrifuged twice, and supernatant was aspirated off very carefully. 200 ul of DMSO was then added to each well to solubilize. MTT crystals and mixed well by shaking the plate. XY graph of log percent viability was then plotted against log drug concentration.
On the technique in general: Tetrazolium dyes change colour on reduction, which living cells bring about.

Experiment [3] concerns PC3 spheres (cancer stem cells). Nature of the experiment: In vitro sphere-forming assay (cancer stem cells), PC3 in Prostosphere media. The note with it: for 3D sphere count of PC3 in Prostosphere media: 2000 cells/well, n = 6 ± S.D; for viability at 250 µM: read-out: % Viability of spheres (PC3), 250 uM.
The subject of experiment [4] is PC3 prostate cancer cell line. Nature of the experiment: In vitro antiproliferative assay (MTT assay), PC3. Type of experiment: cell-based. The note with it: 48 hrs drug incubation, read-out: IC50 in micromolar, PC3 (MTT assay). How it is done:
as §4, §5, §6

In experiment [5] the test system is MDAMB231 spheres (cancer stem cells). Nature of the experiment: In vitro sphere-forming assay (cancer stem cells), MDAMB231 in Mammosphere media. Particulars: for 3D sphere count of MDAMB231 in Mammosphere media: 2000 cells/well, n = 6 ± S.D; for viability at 0.025 µM / viability at 0.25 µM / viability at 2.5 µM / viability at 25 µM / viability at 250 µM: Homo sapiens.
Method: In Vitro Sphere-forming Assay: Sphere assay measures the ability of cancer stem cells (CSCs) to form spheres in specially designed serum-free medium.
Mammosphere Media Preparation (For 100 mL): 1 g methyl cellulose autoclaved with magnetic stirrer, 100 ml plain media (MEBM) was added and dissolved under magnetic stirring. After complete dissolution FGF—80 μL, EGF—40 μL, Penstrep—1 mL, Heparin—400 μL was added.
Procedure—The cells were trypsinised and made into single-cell suspension by passing through cell strainers (100 μl and 40 μl, respectively), The cells were diluted at a concentration of 2000 cells/100 μL and suspended in either Mammosphere (for breast cell lines) or Prostosphere (for prostate cell lines). 100 μL of this suspension was added into each well of 96-well suspension plates and incubated at 37 C, 50 CO2 for 24 hrs. Appropriate concentrations of the drugs (2 L) were added into respective wells with 100 μL of stem cell culture medium. Plates were incubated at 37° C., 50% CO2 for 72 hrs. After incubation, 2.5 μL of the respective drug concentration and 50 μL of stem cell culture medium were added into each well and the plates were further incubated at 37° C., 500 CO2 for 72 hrs. 3 μL of the respective drug concentration was added with 50 μL of stem cell culture medium again after incubation and plates were reincubated for 72 hrs at 37° C., 500 CO2. Number of primary spheres formed for each concentration were counted. The spheres were converted to 0 viability of spheres compared to untreated (Growth Control with DMSO, GCD).

Experiment [6] relates to MDAMB231 breast cancer cell line. Nature of the experiment: In vitro antiproliferative assay (MTT assay), MDAMB231. Particulars: 48 hrs drug incubation, read-out: IC50 in micromolar, MDAMB231 (MTT assay). Type of experiment: cell-based. How it is done:
as §4, §5, §6

The test system is the same in experiment [7]. Nature of the experiment: Soft agar colony-formation assay, MDAMB231. Type of experiment: cell-based. The note with it: 1 week, Alamar Blue, read-out: IC50 in micromolar, MDAMB231 (Soft Agar Assay). How it is done: as §1, §2, §3
Where [8] appears, read: read-out: % Viability of spheres (PC3), 0.025 uM, GCD = 100% viability.
Where [9] appears, read: read-out: % Viability of spheres (PC3), 0.25 uM, GCD = 100% viability.
Where [10] appears, read: read-out: % Viability of spheres (PC3), 2.5 uM, GCD = 100% viability.
Where [11] appears, read: read-out: % Viability of spheres (PC3), 25 uM, GCD = 100% viability.
Setting [12] is: MDA-MB-231, read-out: % Viability of spheres (MDAMB231).
The mark [13] stands for this setting: read-out: % Viability of spheres (PC3).

Each structure is given as a SMILES string. “And” between values parts separate entries of the source, which are not always exact repeats. Equal entries are not always repeated. Where two headings read alike, the source gives them in different places.

For orientation: IC50 means the concentration that gives 50% inhibition. `N.N.[Cl][Pt][Cl]` [Cisplatin, reference compound]: the IC50 in experiment [1] came to 33.4 µM; in experiment [2] it was 29.8 µM; in experiment [4] it was 24 µM; in experiment [6] it was 29.4 µM; in experiment [7], 26.2 µM. Further, the “3D sphere count of PC3 in Prostosphere media” value (from here on “3D sphere count of PC3”) in experiment [3] (250 uM) is 29(±2) and 29(±5) and 25(±2) and 27(±2). In addition, the “3D sphere count of MDAMB231 in Mammosphere media” value (“3D sphere count of MDAMB231” below) in experiment [5] (250 uM) was 24(±3) and 25(±2).

Broadly, the viability is a read-out of living cells in per cent, often relative to untreated cells. For the compound `CCOC(=O)N1CCN(CCCCCCOc2c3c(c(-c4ccc5c(c4)OCO5)c4cc(OC)c(OC)cc24)C(=O)OC3)CC1` [Formula III, ethyl 4-(6-(9-(benzo[d][1,3]dioxol-5-yl)-1,3-dihydro-6,7-dimethoxy-1-oxonaphtho[2,3-c]furan-4-yloxy)hexyl)piperazine-1-carboxylate], the IC50 in experiment [1] stood at 4.84 µM; in experiment [2], 5.41 µM; in experiment [4] (48 h) it was 2.36 µM; in experiment [6], 6.68 µM; in experiment [7], 2.53 µM. Further, the “3D sphere count of PC3” value in experiment [3] (0.025 uM) is recorded as 49(±3); in experiment [3] (0.25 uM), 38(±4); in experiment [3] (2.5 uM) it was 29(±4); in experiment [3] (25 uM), 23(±3); in experiment [3] (250 uM), 0(±0). Also, the values for the viability at 0.025 µM in experiment [3] (setting [8]) and in experiment [5] (setting [12]) were 63% and 53%, respectively. In addition, the results for the viability at 0.25 µM in experiment [3] (setting [9]) and in experiment [5] (setting [12]) were 49% and 45%, respectively. For the same compound, the results for the viability at 2.5 µM in experiment [3] (setting [10]) and in experiment [5] (setting [12]) were 37% and 39%, respectively. The viability at 25 µM in experiment [3] (setting [11]) was determined as 29%; in experiment [5] (setting [12]) it was 22%. The viability at 250 µM in experiment [3] (GCD = 100% viability) and in experiment [5] (setting [12]) was 0% each time. Besides, the “3D sphere count of MDAMB231” value in experiment [5] (0.025 uM) was 41(±2); in experiment [5] (0.25 uM), 35(±3); in experiment [5] (2.5 uM), 30(±4); in experiment [5] (25 uM), 17(±4); in experiment [5] (250 uM), 0(±0).

On to `c1ccc2c(-c3ccc4c(c3)OCO4)ccc(OCCCCCCN3CCOCC3)c2c1` [Formula IV, 4-(6-(1-(benzo[d][1,3]dioxol-5-yl)naphthalen-4-yloxy)hexyl)morpholine], for which the IC50 in experiment [1] (168 h) was determined as 7.5 µM; in experiment [2], 3.16 µM; in experiment [4] (48 h) it was 3.79 µM; in experiment [6] it was 3.86 µM; in experiment [7] (Homo sapiens, MDA-MB-231, 168 h), 2.59 µM. For the same compound, the “3D sphere count of PC3” value in experiment [3] (0.025 uM) is 44(±3); in experiment [3] (0.25 uM) it was 35(±3); in experiment [3] (2.5 uM), 32(±3); in experiment [3] (25 uM) it was 22(±3); in experiment [3] (250 uM), 0(±0). Besides, the viability at 0.025 µM stood at 59% in experiment [3] (setting [8]) and 50% in experiment [5] (setting [12]). The viability at 0.25 µM in experiment [3] (setting [9]) was 47%; in experiment [5] (setting [12]) it was 44%. In addition, the viability at 2.5 µM came out at 43% in experiment [3] (setting [10]) and 31% in experiment [5] (setting [12]). Further, the viability at 25 µM in experiment [3] (setting [11]) is 29%; in experiment [5] (setting [12]), 13%. Further, the viability at 250 µM in experiment [3] (GCD = 100% viability) and in experiment [5] (setting [12]) was 0% throughout. For the same compound, the “3D sphere count of MDAMB231” value in experiment [5] (0.025 uM) is given as 40(±2); in experiment [5] (0.25 uM) it was 35(±2); in experiment [5] (2.5 uM) it was 25(±2); in experiment [5] (25 uM), 11(±2); in experiment [5] (250 uM), 0(±0).

Regarding `Cl.c1ccc2c(-c3ccc4c(c3)OCO4)ccc(OCCCCCCN3CCOCC3)c2c1` [Formula V, 4-(6-(1-(benzo[d][1,3]dioxol-5-yl)naphthalen-4-yloxy)hexyl)morpholine hydrochloride], the concentration for half-maximal inhibition (IC50) was determined as 3.98 µM in experiment [1] (hydrochloride); 9.77 µM in experiment [2] (hydrochloride); 6.03 µM in experiment [4] (hydrochloride); 9.25 µM in experiment [6] (hydrochloride); 2.21 µM in experiment [7] (hydrochloride). The “3D sphere count of PC3” value in experiment [3] (0.025 uM) is on record as 58(±3); in experiment [3] (0.25 uM), 49(±3); in experiment [3] (2.5 uM), 41(±2); in experiment [3] (25 uM), 30(±5); in experiment [3] (250 uM) it was 0(±0). For the same compound, the viability at 0.025 µM in experiment [3] (setting [13]) was 67%. The viability at 0.25 µM in experiment [3] (setting [13]) is 57%; in experiment [5] (MDA-MB-231, read-out: % Viability of spheres (MDAMB231), 0.25 uM, GCD = 100% viability) it was 47%. In addition, the viability at 2.5 µM in experiment [3] (setting [13]) amounted to 48%; in experiment [5] (MDA-MB-231, read-out: % Viability of spheres (MDAMB231), 2.5 uM, GCD = 100% viability) it was 33%. In addition, the viability at 25 µM in experiment [3] (setting [13]) is 35%; in experiment [5] (MDA-MB-231, read-out: % Viability of spheres (MDAMB231), 25 uM, GCD = 100% viability) it was 23%. The “3D sphere count of MDAMB231” value is listed as 41(±5) in experiment [5] (0.025 uM); 39(±3) in experiment [5] (0.25 uM); 27(±3) in experiment [5] (2.5 uM); 19(±4) in experiment [5] (25 uM); 0(±0) in experiment [5] (250 uM).
